Experimental data taken from patent publication US20100069382A1, “Agent for prophylaxis or treatment of alcohol dependence or drug dependence” (priority 2006, published 2010).
Where two headings read alike, the source gives them in different places.

Key:
[1] = existing medicines, known profile, cited from earlier work
Wistar rats = assay: Effect on alcohol withdrawal symptoms in Wistar rats; format: in vivo, rat
Procedure: Male Wistar rats were used in this study. According to the protocol shown in FIG. 1, rats were orally given 12-15 g/kg/body weight of ethanol in 24 hours on day 1 to day 2 and 9-10 g/kg/body weight of ethanol in 12 hours on day 3 to day 5. Compound A was administered p.o. at doses of 0.3 and 1 mg/kg/body weight twice after 2 and 7 hours of last ethanol administration. Four types of alcohol withdrawal symptoms such as vocalization, ventromedial limb retraction, tail rigidity, tail tremors were observed and scored with following 3 rating scales: mild=0, moderate=1, severe=2.

msP rats [2] = assay: Effect on alcohol intake in msP rats; format: in vivo, rat
Procedure: Male genetically selected alcohol-preferring rats known as Marchigian Sardinian alcohol-preferring (msP) rats were used in this study (Addiction Biol. 11, 339-355, 2006). […] Compound A at doses of 0.3 and 1 mg/kg/body weight was orally administered twice for 9 days at 1 hour before and 8 hours after onset of dark period.

msP rats [3] = assay: Study on dependence elicitation (conditioned place preference) in msP rats; format: in vivo, rat
Procedure: A two-compartment box divided by guillotine door was used. […] For the following 6 days, the rats were treated on alternate days with three Compound A-pairing administrations (0.3 and 1.0 mg/kg/body weight, p.o.) and three vehicle-pairing administrations immediately before being placed, for 1 hour, into the assigned chamber with guillotine door close for drug-compartment discrimination (conditioning). The day after the last conditioning session, the rats were placed, for 15 min, in the box with door open. The time spent in the drug paired compartment was measured.

msP rats [4] = assay: Yohimbine-induced reinstatement of alcohol-seeking behavior in msP rats; format: in vivo, rat
From the text: Male genetically selected alcohol-preferring rats known as msP rats were used in this study (Addiction Biol. 11, 339-355, 2006). […] After acquisition of a stable baseline of 10% ethanol self-administration, rats were subjected to 30-min extinction sessions for 15 consecutive days. Extinction sessions were identical to 10% ethanol self-administration sessions, however alcohol was no longer available. Beginning on extinction day 10, rats were divided into three groups with similar baseline levels of responding for 10% ethanol. For six consecutive days, 1 hour before the self-administration session and 8 hours later, each group of rats were orally given vehicle, 0.3 mg/kg of Compound A or 1.0 mg/kg of Compound A. After the extinction sessions, rats were given yohimbine (1,25 mg/kg, i.p.) 35 min before the test sessions. The 30-min reinstatement test was conducted under extinction condition.
Yohimbine was used as stressor for this study, because yohimbine is known to produce stress and anxiety-like states in both humans and non-humans (Bremner et al, 1996; Charney et al 1983; Holmberg et al 1963).

[5] = Economidou et al., Peptides 27, 3299-3306, 2006, cited from earlier work
[6] = 0.3 and 1 mg/kg/body weight p.o. twice, 2 and 7 hours after last ethanol, observed 8 to 24 hours after last ethanol administration, FIG. 2

CC(=O)NCCCS(=O)(=O)O [Acamprosate]
Ameliorative effect on alcohol withdrawal symptoms [1]: none
Presence/absence of dependence [1]: absent
Suppressive effect on excessive alcohol intake [1]: yes
Suppressive effect on stress-induced reinstatement [1]: none
Ameliorative effect on alcohol withdrawal symptoms ([1]; listed as acamprosate): ineffective
Suppressive effect on excessive alcohol intake ([1]; listed as acamprosate): effective
Suppressive effect on stress-induced reinstatement ([1]; listed as acamprosate): ineffective

Clc1cccc(Cl)c1N=C1NCCN1 [Clonidine]
Ameliorative effect on alcohol withdrawal symptoms [1]: yes
Presence/absence of dependence [1]: absent
Suppressive effect on excessive alcohol intake [1]: none
Suppressive effect on stress-induced reinstatement [1]: none
Ameliorative effect on alcohol withdrawal symptoms ([1]; listed as clonidine): effective
Suppressive effect on excessive alcohol intake ([1]; listed as clonidine): ineffective
Suppressive effect on stress-induced reinstatement ([1]; listed as clonidine): ineffective

CNC(=O)Cn1c(=O)n(C2CCN([C@@H]3Cc4cccc5cccc3c45)CC2)c2ccccc21 [Compound A, (R)-2-{3-[1-(acenaphthen-1-yl)piperidin-4-yl]-2,3-dihydro-2-oxo-benzimidazol-1-yl}-N-methylacetamide]
score of tail rigidity (alcohol withdrawal symptom) (Wistar rats; [6]): significantly and dose-dependently decreased
score of tail tremors (alcohol withdrawal symptom) (Wistar rats; [6]): significantly and dose-dependently decreased
score of ventromedial limb retraction (alcohol withdrawal symptom) (Wistar rats; [6]): significantly and dose-dependently decreased
Ameliorative effect on alcohol withdrawal symptoms (Wistar rats; Table 1 summary, Compound A): yes
ethanol consumption (msP rats [2]; 0.3 and 1 mg/kg/body weight orally twice daily for 9 days, free choice water / 10% ethanol, FIG. 4): significantly and dose-dependently decreased
Suppressive effect on excessive alcohol intake (msP rats [2]; Table 1 summary, Compound A): yes
duration of significant decrease of ethanol consumption after withdrawal of Compound A (msP rats [2]; after 9 days of oral dosing at 0.3 and 1 mg/kg/body weight, FIG. 4): 9 days
place preference (time spent in drug paired compartment) (msP rats [3]; 0.3 and 1.0 mg/kg/body weight p.o., three pairings, FIG. 8): induced place preference at neither 0.3 nor 1 mg/kg/body weight
Presence/absence of dependence (msP rats [3]; Table 1 summary, Compound A): absent
dependence elicitation by the compound itself (msP rats [3]; conclusion from conditioned place preference at 0.3 and 1 mg/kg/body weight): does not elicit dependence
yohimbine stress-induced reinstatement of alcohol-seeking behavior (msP rats [4]; 1 mg/kg orally twice daily for six days, yohimbine 1,25 mg/kg i.p., FIG. 6): significantly attenuated
Suppressive effect on stress-induced reinstatement (msP rats [4]; Table 1 summary, Compound A): yes

CN1C(=O)CN=C(c2ccccc2)c2cc(Cl)ccc21 [Diazepam]
Ameliorative effect on alcohol withdrawal symptoms [1]: yes
Presence/absence of dependence [1]: present
Suppressive effect on excessive alcohol intake [1]: none
Suppressive effect on stress-induced reinstatement [1]: none
Presence/absence of dependence ([1]; listed as diazepam): induce dependence

O=C1CC[C@@]2(O)[C@H]3Cc4ccc(O)c5c4[C@@]2(CCN3CC2CC2)[C@H]1O5 [Naltrexone]
Ameliorative effect on alcohol withdrawal symptoms [1]: none
Presence/absence of dependence [1]: absent
Suppressive effect on excessive alcohol intake [1]: yes
Suppressive effect on stress-induced reinstatement [1]: none
Ameliorative effect on alcohol withdrawal symptoms ([1]; listed as naltrexone): ineffective
Suppressive effect on excessive alcohol intake ([1]; listed as naltrexone): effective
Suppressive effect on stress-induced reinstatement ([1]; listed as naltrexone): ineffective

O=C1NCN(c2ccccc2)C12CCN([C@@H]1CC[C@H]3CCCc4cccc1c43)CC2 [Ro64-6198]
alcohol drinking [5]: failed to decrease alcohol drinking
alcohol drinking at high dose ([5]; high dose): increase
